In ChEMBL document CHEMBL1201862, “PubChem BioAssay data set” (2004):
The source made the active and inactive calls.

Key:
[1] = NIH-3T3 fibroblast cytotoxicity, dose response, cytotoxicity control, cell-based, fluorescence, Alamar Blue, secondary assay (AID 2327); assay type: functional;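 also: NIH-3T3 mouse fibroblasts cultured with fluconazole at 8 µg/mL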
Streptococcus = test: Group A Streptococcus viability loss, dose response, counter-screen for streptokinase expression inhibitor project, luminescence, BacTiterGlo (AID 1915); assay type: functional, organism-based;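 also: potency for reduction of bacterial viability or growth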
[2] = inhibitors of SNCA 5'UTR-driven reporter translation, confirmation, H4 neuroglioma cells, luminescence (AID 1988); assay type: functional, cell-based
[3] = Luminescence Cell-Based Dose Response HTS to Identify Inhibitors of 5'UTR Stem-Loop Driven Prion Protein mRNA Translation in H4 Neuroglioblastoma Cells. [Related pubchem assays: 1827 (Project Summary), 1813 (Primary HTS)]; assay type: functional
Vero [4] = test: Vero cell cytotoxicity, cytotoxicity control for flavivirus capping enzyme inhibitors (AID 588742); assay type: functional; details: Chlorocebus sabaeus
[5] = inhibitors of firefly luciferase expression or activity, dose response, H4 neuroglioma cells, luminescence (AID 1990); assay type: functional, cell-based
Vero [6] = test: cells; assay type: functional; details: Chlorocebus sabaeus
[7] = molecular target: T1, Serine/threonine-protein phosphatase (Candida dubliniensis (strain CD36 / CBS 7987 / NCPF 3949 / NRRLY-17841) (Yeast), UniProt B9W6M3); test: calcineurin pathway inhibitors in yeast reporter, dose response, S. cerevisiae, CDRE-lacZ, luminescence, secondary (AID 2388); assay type: functional, cell-based;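 also: yeast reporter cells carrying a calcineurin-responsive lacZ construct stimulated with calcium chloride; luminescent beta-galactosidase reporter signal in whole cells rather than isolated phosphatase activity; potency for inhibition where a drop in reporter signal means calcineurin blockade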
T1 sequence (B9W6M3 whole entry): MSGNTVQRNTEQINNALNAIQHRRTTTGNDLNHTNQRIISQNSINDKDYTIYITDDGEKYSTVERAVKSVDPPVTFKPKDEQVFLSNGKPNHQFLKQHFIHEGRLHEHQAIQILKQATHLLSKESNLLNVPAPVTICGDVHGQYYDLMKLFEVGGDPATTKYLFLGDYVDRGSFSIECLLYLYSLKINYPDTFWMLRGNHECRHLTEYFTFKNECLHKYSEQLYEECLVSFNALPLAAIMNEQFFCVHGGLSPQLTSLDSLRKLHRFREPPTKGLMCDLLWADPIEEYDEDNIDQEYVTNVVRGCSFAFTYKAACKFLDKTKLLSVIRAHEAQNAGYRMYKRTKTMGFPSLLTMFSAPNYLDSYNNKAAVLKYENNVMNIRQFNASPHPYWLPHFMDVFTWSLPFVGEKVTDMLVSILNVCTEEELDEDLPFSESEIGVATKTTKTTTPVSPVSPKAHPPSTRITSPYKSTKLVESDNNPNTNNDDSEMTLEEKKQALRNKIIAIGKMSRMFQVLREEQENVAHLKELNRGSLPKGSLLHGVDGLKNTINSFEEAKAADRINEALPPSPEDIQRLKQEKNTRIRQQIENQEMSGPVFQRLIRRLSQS

[8] = molecular target: ATP-dependent molecular chaperone HSP82 (Candida albicans (strain WO-1) (Yeast), UniProt C4YTQ8); test: loss of DOC-induced GRE-beta-galactosidase reporter signal, dose response, Hsp90 inhibitor project, S. cerevisiae, luminescence (AID 2400); assay type: functional, cell-based;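 also: beta-galactosidase luminescence from glucocorticoid response element reporter as proxy for Hsp90 function; inhibitor potency where signal loss means Hsp90 inhibition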
ATP-dependent molecular chaperone HSP82, sequence (C4YTQ8 whole entry): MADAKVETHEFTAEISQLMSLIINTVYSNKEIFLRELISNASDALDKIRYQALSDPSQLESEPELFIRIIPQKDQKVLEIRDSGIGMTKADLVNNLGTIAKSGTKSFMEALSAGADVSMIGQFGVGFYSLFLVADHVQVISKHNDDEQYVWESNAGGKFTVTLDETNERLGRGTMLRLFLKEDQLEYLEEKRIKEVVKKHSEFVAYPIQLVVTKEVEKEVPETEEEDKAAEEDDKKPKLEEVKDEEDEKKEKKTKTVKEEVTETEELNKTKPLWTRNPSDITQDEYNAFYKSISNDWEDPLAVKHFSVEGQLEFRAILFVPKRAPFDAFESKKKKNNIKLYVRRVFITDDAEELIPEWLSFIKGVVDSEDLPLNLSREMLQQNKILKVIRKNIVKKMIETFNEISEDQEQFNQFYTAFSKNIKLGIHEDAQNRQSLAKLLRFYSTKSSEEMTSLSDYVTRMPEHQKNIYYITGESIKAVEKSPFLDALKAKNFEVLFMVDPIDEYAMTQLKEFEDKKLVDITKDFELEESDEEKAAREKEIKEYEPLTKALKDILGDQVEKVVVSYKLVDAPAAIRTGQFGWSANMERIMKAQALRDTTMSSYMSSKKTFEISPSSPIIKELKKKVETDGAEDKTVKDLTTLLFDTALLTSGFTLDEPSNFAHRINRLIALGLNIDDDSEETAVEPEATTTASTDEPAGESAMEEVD

[9] = C. albicans growth with fluconazole, confirmation, fluorescence, retest (AID 2467); assay type: functional, cell-based
[10] = test system: Streptococcus sp. 'group A'; test: growth inhibition of control SK(-) GAS strain, dose response, counter-screen for streptokinase expression inhibitor project, luminescence, kanamycin, BacTiterGlo, confirmation (AID 1900); assay type: functional, organism-based
HeLa = test: HeLa cell cytotoxicity, dose response, cytotoxicity control for MITF activator project, CellTiter-Glo luminescence, cherry-pick samples (AID 540259); assay type: functional, cell-based; details: Homo sapiens
[11] = molecular target: Voltage-gated inwardly rectifying potassium channel KCNH2 (Homo sapiens, UniProt Q12809); details: Potency;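 also: confirmatory quantitative high-throughput screen measuring inhibition of hERG channel activity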
Voltage-gated inwardly rectifying potassium channel KCNH2, sequence (Q12809 whole entry): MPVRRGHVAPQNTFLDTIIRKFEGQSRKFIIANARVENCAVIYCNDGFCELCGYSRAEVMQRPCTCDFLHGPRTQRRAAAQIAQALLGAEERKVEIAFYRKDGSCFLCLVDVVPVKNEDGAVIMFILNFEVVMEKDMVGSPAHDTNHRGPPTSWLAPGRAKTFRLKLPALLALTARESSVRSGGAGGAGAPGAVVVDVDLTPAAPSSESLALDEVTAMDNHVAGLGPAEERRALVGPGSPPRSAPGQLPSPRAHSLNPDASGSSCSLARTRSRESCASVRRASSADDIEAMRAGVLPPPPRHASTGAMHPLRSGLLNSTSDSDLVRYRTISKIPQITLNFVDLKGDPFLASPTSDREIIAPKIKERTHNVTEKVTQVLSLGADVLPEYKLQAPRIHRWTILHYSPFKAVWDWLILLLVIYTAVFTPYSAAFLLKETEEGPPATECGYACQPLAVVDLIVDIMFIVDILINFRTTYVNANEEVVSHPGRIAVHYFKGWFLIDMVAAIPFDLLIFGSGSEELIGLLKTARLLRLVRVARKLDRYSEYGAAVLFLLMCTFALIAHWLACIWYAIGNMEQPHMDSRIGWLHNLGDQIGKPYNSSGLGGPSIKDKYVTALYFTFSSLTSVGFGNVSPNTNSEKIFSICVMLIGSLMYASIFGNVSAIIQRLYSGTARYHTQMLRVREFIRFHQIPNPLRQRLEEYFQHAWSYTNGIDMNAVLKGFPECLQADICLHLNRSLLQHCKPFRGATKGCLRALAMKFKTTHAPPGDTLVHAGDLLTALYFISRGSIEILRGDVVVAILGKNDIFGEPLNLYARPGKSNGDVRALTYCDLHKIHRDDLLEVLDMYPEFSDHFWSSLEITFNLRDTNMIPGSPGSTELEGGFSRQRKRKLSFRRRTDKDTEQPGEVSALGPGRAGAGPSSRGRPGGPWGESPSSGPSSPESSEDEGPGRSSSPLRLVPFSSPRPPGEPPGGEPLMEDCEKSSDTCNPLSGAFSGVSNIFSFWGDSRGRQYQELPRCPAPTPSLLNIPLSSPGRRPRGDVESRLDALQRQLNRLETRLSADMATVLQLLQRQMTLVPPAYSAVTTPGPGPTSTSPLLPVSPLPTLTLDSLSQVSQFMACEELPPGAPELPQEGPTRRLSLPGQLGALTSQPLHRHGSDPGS

[12] = molecular target: T2, Aryl hydrocarbon receptor (Homo sapiens, UniProt P35869); details: Potency;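 also: confirmatory quantitative high-throughput screen measuring activation of the AhR signaling pathway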
T2 sequence (P35869 whole entry): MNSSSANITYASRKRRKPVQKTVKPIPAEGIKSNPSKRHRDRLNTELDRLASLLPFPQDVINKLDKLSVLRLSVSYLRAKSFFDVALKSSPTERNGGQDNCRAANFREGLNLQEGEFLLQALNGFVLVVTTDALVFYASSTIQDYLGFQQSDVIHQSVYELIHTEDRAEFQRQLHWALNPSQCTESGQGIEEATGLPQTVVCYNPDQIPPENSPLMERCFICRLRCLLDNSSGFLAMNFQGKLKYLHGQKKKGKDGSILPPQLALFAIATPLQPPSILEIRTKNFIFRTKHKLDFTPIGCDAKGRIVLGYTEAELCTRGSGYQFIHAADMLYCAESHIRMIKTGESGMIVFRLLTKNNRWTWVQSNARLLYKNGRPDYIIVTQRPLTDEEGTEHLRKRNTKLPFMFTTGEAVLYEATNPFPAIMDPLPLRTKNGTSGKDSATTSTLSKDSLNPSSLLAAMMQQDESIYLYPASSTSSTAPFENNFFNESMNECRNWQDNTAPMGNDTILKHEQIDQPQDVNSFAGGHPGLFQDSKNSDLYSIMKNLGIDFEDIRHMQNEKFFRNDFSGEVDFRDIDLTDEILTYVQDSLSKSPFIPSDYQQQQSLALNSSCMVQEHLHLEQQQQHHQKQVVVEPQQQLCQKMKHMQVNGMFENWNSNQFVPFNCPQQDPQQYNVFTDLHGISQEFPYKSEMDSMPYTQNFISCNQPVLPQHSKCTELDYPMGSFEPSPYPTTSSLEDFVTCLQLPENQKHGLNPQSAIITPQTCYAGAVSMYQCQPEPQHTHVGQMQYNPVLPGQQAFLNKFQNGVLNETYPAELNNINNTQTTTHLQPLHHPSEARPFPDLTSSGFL

[13] = cytotoxicity in MIN6 insulinoma cells, dose response, cytotoxicity control, cell-based, mouse insulinoma (AID 2122); assay type: functional;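 also: confirmatory high-throughput counterscreen run to flag cytotoxic compounds; mouse MIN-6 beta cells carrying an insulin promoter eGFP reporter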
[14] = molecular target: T3, Polyadenylate-binding protein 1 (Homo sapiens, UniProt P11940); test: PABP1 MLLE–PAM2 binding inhibitor potency, dose response, biochemical, fluorescence polarization, FITC-PAM2 peptide (AID 602259); assay type: functional; details: read-out: IC50_Mean
T3 sequence (P11940 whole entry): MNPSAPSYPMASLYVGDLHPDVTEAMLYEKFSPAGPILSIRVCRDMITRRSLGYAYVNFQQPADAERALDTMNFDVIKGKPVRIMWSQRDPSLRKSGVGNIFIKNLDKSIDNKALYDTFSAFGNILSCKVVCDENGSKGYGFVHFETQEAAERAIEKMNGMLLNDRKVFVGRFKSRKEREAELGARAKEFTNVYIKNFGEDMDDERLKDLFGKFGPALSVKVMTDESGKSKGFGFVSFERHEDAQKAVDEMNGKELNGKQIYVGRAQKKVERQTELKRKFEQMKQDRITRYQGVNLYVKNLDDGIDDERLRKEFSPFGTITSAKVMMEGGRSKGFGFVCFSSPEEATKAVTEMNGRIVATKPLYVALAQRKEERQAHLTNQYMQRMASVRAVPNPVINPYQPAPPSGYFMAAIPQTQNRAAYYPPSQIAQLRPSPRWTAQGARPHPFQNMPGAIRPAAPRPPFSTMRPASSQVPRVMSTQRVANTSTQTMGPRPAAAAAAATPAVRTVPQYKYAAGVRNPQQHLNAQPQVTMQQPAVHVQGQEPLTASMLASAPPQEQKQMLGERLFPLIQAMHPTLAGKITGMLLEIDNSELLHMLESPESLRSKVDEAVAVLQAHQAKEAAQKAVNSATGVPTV

[15] = insulin promoter down-regulators in MIN6 cells, imaging, high-content screening, mouse beta cells (AID 1628); assay type: functional
Nonstructural protein 1 = Nonstructural protein 1 (Influenza A virus, UniProt Q194T2); assay type: functional, Influenza A virus (A/California/07/2009(H1N1))
Nonstructural protein 1, sequence (Q194T2 whole entry): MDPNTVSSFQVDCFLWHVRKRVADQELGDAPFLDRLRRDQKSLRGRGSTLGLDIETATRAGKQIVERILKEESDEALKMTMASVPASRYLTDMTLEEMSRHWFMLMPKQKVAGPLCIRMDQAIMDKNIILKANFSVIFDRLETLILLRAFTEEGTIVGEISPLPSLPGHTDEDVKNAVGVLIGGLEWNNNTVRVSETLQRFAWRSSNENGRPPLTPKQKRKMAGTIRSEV

[16] = molecular target: T3, Polyadenylate-binding protein 1; test: PABP1 MLLE–PAM2 interaction inhibitors, dose response, miRNA deadenylation inhibitor project, biochemical, fluorescence polarization, Cy5-PAM2 peptide, secondary (AID 602260); assay type: functional; details: read-out: IC50_Mean
[17] = molecular target: Induced myeloid leukemia cell differentiation protein Mcl-1 (Homo sapiens, UniProt Q07820); assay type: functional
Induced myeloid leukemia cell differentiation protein Mcl-1, sequence (Q07820 whole entry, the tested form may be a part): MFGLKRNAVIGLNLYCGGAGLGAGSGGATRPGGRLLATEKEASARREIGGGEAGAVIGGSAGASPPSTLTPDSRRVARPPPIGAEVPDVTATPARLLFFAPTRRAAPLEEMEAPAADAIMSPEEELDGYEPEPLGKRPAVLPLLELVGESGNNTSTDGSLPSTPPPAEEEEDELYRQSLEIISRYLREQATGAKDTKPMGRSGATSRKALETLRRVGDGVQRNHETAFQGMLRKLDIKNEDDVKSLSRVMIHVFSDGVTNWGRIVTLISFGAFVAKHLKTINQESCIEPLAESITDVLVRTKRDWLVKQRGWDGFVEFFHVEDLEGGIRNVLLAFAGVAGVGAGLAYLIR

CHO = test: cytotoxicity in TLR9-MyD88 CHO cells, dose response, cytotoxicity control for TLR9-MyD88 binding inhibitor project, cell-based, luminescence (AID 588339); assay type: functional, hamster; details: Cricetulus griseus;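 also: CHO cells stably coexpressing TLR9 and MyD88 fusions from primary screen; compound exposure lasted 48 hours before viability readout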
Beta Lactamase = Beta Lactamase (Pseudomonas aeruginosa, UniProt Q932Y6); test: beta-lactamase reporter inhibitor potency, dose response, artefact control for TLR9-MyD88 binding inhibitor project, BLA reporter cells, FRET fluorescence (AID 588341); assay type: cell-based;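 also: cell based assay in CHO-K1 cells stably expressing beta-lactamase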
Beta Lactamase, sequence (Q932Y6 whole entry): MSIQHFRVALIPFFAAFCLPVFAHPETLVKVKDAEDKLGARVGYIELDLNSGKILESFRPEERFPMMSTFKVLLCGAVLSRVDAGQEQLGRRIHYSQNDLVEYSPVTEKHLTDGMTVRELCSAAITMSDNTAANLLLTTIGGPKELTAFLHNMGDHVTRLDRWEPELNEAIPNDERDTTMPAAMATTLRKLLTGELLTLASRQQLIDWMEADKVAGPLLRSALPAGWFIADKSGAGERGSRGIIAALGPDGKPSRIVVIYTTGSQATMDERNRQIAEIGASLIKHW

[18] = molecular target: Latent membrane protein 1 (Human herpesvirus 4 (strain B95-8), UniProt P03230); test: TES1-eGFP NF-kB reporter inhibition versus Tet-On dsRED, dose response, selectivity assay for LMP1 NF-kB inhibitor project, imaging, HEK293T, dual-color eGFP/dsRED, cherry-picks (AID 588398); assay type: functional, cell-based
Latent membrane protein 1, sequence (P03230 whole entry): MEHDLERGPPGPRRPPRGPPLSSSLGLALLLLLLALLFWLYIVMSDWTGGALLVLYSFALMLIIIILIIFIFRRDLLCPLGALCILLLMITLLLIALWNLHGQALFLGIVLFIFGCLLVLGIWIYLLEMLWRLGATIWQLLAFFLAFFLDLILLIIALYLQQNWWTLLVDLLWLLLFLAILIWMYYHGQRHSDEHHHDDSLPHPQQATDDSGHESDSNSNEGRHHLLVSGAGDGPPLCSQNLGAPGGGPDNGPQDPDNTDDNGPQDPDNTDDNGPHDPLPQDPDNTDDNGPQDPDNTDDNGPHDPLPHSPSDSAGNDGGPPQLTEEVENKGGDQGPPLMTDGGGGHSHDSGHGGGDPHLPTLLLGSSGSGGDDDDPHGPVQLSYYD

HEK293 = test: inhibitors of LMP1-driven NF-kB reporter, dose response, cell-based, HEK293, luciferase, cherry-pick (AID 588343); assay type: functional; details: Homo sapiens
[19] = molecular target: Luciferin 4-monooxygenase (Photinus pyralis, UniProt P08659); test: firefly luciferase enzyme inhibitors, dose response, biochemical, luminescence (AID 1891)
Luciferin 4-monooxygenase, sequence (P08659 whole entry): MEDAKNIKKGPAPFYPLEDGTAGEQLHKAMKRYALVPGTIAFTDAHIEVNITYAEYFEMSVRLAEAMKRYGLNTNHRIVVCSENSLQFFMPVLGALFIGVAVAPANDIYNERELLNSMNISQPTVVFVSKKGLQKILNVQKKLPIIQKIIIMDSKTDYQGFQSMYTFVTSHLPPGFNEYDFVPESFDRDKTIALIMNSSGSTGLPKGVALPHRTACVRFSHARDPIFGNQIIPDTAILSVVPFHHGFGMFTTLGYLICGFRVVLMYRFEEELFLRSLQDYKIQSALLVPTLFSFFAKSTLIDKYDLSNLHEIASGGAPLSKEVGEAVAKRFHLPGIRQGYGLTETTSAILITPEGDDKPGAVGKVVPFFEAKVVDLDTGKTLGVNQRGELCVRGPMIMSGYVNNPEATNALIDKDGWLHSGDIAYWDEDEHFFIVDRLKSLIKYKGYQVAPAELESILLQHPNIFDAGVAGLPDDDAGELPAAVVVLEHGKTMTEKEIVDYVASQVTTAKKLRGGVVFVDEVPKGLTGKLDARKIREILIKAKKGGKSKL

[20] = Luminescence Cell-Based Dose Confirmation HTS to Identify Inhibitors of Platelet Dense Granule Release. [Related pubchem assays: 1663 (Primary HTS), 1678 (Summary of Project)]; assay type: functional

With Cc1cccc(/C=C/C(=O)c2cc(Br)ccc(=O)c2O)c1 the EC50 [1] was 42.4 µM (inconclusive), the EC50 (Streptococcus) was 2.77 µM (active) and the EC50 [2] was 9.67 µM (active). For the same compound, the EC50 [3] was > 120 µM (not active), the CC50 (Vero [4]) was 15.1 µM (active) and the EC50 [5] was 11.6 µM (active). The CC50 (Vero [6]) was 7.95 µM (active), the EC50 [7] was > 180 µM (inactive) and the EC50 [8] was 6.88 µM (active). For the same compound, the EC50 [9] was 1.11 µM (active) and the EC50 [10] was 1.78 µM (active).
For c1ccc(Nc2ccc(Nc3ccccc3)cc2)cc1, the AC50 (HeLa) was 43.6 µM (active), the AC50 [11] was 20 µM (inconclusive) and the AC50 [12] was 50.1 µM (inconclusive).
In the case of CCCCN1C(=O)/C(=C2\SC(N3CCCCC3)=NC2=O)c2ccccc21, the IC50 [13] is reported as 1.54 µM (active), the IC50 [14] is reported as > 66 µM (inactive) and the IC50 [15] is reported as 2.13 µM (active). The IC50 (Nonstructural protein 1) was 27.4 µM (active), the AC50 (HeLa) was 37.9 µM (active) and the IC50 [16] was > 66 µM (inactive).
For COc1ccc(C(=O)c2sc3nc(-c4ccc(OC)cc4)ccc3c2N)cc1, the IC50 [17] was 2.99 µM (not active), the IC50 (CHO) was 36.8 µM (inactive) and the IC50 (Beta Lactamase) was 4.44 µM (active).
For COc1ccc(C(=O)Nc2ccc3[nH]ccc3c2)cc1, the EC50 [2] was 7.91 µM (active), the EC50 [3] was 13.6 µM (active) and the AC50 [18] was 27.2 µM (active). For the same compound, the AC50 (HEK293) was 2.59 µM (active), the EC50 [19] was 3.28 µM (active) and the EC50 [20] was 5.61 µM (active).
